#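 Each compound was tested at five concentrations against cells in 96-well plates for 48 hours. The concentration for 50% growth inhibition is given as GI50. Definition used: TGI = concentration required for complete inhibition of growth.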
# Columns and labels:
# Experiment in all cases: DTP human tumour cell line panel, 48 h
# HCT-116 colon = tested on: HCT-116 colon
# IGROV1 ovarian = tested on: IGROV1 ovarian
# K-562 leukemia = tested on: K-562 leukemia
# LOX IMVI melanoma = tested on: LOX IMVI melanoma
# NCI-H226 lung = tested on: NCI-H226 lung
# OVCAR-8 ovarian = tested on: OVCAR-8 ovarian
# SF-295 CNS = tested on: SF-295 CNS
# UACC-62 melanoma = tested on: UACC-62 melanoma
# SK-MEL-28 melanoma = tested on: SK-MEL-28 melanoma
# SR leukemia = tested on: SR leukemia
SMILES,GI50 (HCT-116 colon) [µM],TGI (HCT-116 colon) [µM],GI50 (IGROV1 ovarian) [µM],TGI (IGROV1 ovarian) [µM],GI50 (K-562 leukemia) [µM],TGI (K-562 leukemia) [µM],GI50 (LOX IMVI melanoma) [µM],TGI (LOX IMVI melanoma) [µM],GI50 (NCI-H226 lung) [µM],TGI (NCI-H226 lung) [µM],GI50 (OVCAR-8 ovarian) [µM],TGI (OVCAR-8 ovarian) [µM],GI50 (SF-295 CNS) [µM],TGI (SF-295 CNS) [µM],GI50 (UACC-62 melanoma) [µM],TGI (UACC-62 melanoma) [µM],GI50 (SK-MEL-28 melanoma) [µM],TGI (SK-MEL-28 melanoma) [µM],GI50 (SR leukemia) [µM],TGI (SR leukemia) [µM]
Cc1cn2c(/C=N/N=C(N)N)c(-c3ccsc3)nc2s1,3.14,12.6,14.9,46.3,3.82,> 100,1.6,3.35,15.5,31.7,16.2,34.4,9.98,22.9,11.3,23.4,,,,
COc1ccc(/C(=N/O)c2cc(OC)c(OC)c(OC)c2)c(OC)c1N,3.41,> 100,7.71,> 100,3.14,> 100,7.28,> 100,> 100,> 100,9.87,> 100,3.02,> 100,,,> 100,> 100,,
CN(C)CCNc1nc2ccccc2c2occc12,34.1,> 100,34.1,89.6,25.9,98.9,19.1,42.8,,,62.3,> 100,60.2,> 100,16.6,34.3,27,> 100,21.3,54.4
CN(C)CCOc1ccc(-c2cc(-c3ccc4c(c3)CC/C4=N\O)c(-c3ccncc3)o2)cc1,1.29,4.5,4.7,10.1,0.668,3.27,1.66,5.63,4.78,9.7,3.97,9,3.8,7.68,0.0906,3.79,0.111,3.71,,
Clc1ccc(C2=NOC3C4CCC(C4)C23)cc1 (stereo not given),,> 100,,> 100,,> 100,,,,> 100,,> 100,,> 100,,> 100,,> 100,,> 100
Cc1cc(O)cc(C)c1/C=C/c1cncc(C(=O)OC(C)(C)C)c1,14.1,> 25,13.2,> 25,11.6,> 25,16,> 25,> 25,> 25,18,> 25,19.8,> 25,17,> 25,17.9,> 25,,
Cc1ccc(C)c2c(N=Nc3ccccc3[N+](=O)[O-])c(O)[nH]c12,,> 100,,> 100,,> 100,,> 100,,,,,,> 100,,> 100,,> 100,,> 100
COc1ccc(C(=O)OC2C(OC3C(O)COC(O[C@H]4C[C@H]5[C@@H]6CC=C7C[C@@H](O)CC[C@]7(C)[C@H]6CC[C@]5(C)[C@H]4[C@H](C)C(=O)CCC(C)C)C3OC(C)=O)OCC(O)C2O)cc1 (stereo not given in full),< 0.003,3.15,< 0.003,8.79,,,< 0.003,0.00483,,,1.02,30,< 0.003,< 0.003,< 0.003,< 0.003,< 0.003,< 0.003,< 0.003,0.682
O=C(Sc1sc(=S)sc1SC(=O)c1ccccc1)c1ccccc1,,> 100,,> 100,,> 100,,,,,,> 100,,> 100,,53,,> 100,,
CC(C)(C)OC(=O)NCCCCCCCCCCn1c2c(c3ccccc3c1=O)C(=O)c1ccccc1-2,60,> 100,,,27.4,> 100,> 100,> 100,> 100,> 100,89.9,> 100,30.9,> 100,43.9,> 100,> 100,> 100,,
CCCCN1CCN(c2ccc3nc(-c4ccc5nc(-c6ccc(OCC)c(OCC)c6)[nH]c5c4)[nH]c3c2)CC1,0.431,1.66,,,0.529,2.27,,,1.29,3.95,,,,,0.686,2.18,1.01,2.22,0.312,1.19
CCN(CC)c1ccc(/C=C/C=C(/C#N)C(N)=S)cc1,3.58,17.7,17.9,> 100,2.83,18.9,4.71,28.3,5.27,30.9,8.07,> 100,27.6,> 100,15.2,48.8,21.2,> 100,,
CCCC#CCOC(=O)c1cc([N+](=O)[O-])cc([N+](=O)[O-])c1,,> 100,,> 100,,> 100,,> 100,,,,> 100,,> 100,,> 100,,> 100,,> 100
O=C(COc1ccc(-c2nc3cc(Cl)c(Cl)cc3[nH]2)cc1)N=Nc1c(O)[nH]c2ccccc12,9.12,> 100,3.13,> 53.3,0.675,> 100,1.02,2.64,,,1.55,> 100,2.63,9.01,2.83,> 100,,,0.803,31.7
O=C1CCC2(c3ccccc3)Nc3ccc(Cl)cc3N12 (stereo not given),,,,> 100,,> 100,,> 100,,> 100,,> 100,,> 100,,> 100,,> 100,,
COc1ccc(-c2nc(-c3nc4ccc(C(F)(F)F)cc4[nH]3)c3ccccn23)cc1,26.1,> 100,> 100,> 100,35.3,> 100,31.3,> 100,,,22.7,> 100,> 100,> 100,51.1,> 100,> 100,> 100,32.3,> 100
O=C(NC(=O)c1cc2cc(Br)cc(Br)c2oc1=O)Oc1ccccc1,,> 100,,> 100,,> 100,,> 100,,> 100,,> 100,,> 100,,> 100,,> 100,,
Oc1c2c(c(O)c3ccccc13)C1(N=N2)c2ccccc2Oc2ccccc21,,17.7,,10.2,,> 100,,7.31,,,,11.1,,33.3,,25.1,,28.8,,> 100
Cc1ccc2c(CC(=O)O)cc(=O)oc2c1,,> 100,,> 100,,> 100,,> 100,,> 100,,> 100,,> 100,,> 100,,> 100,,
CC(=O)/C(=C\c1c(-c2ccccc2)[nH]c2ccccc12)S(=O)(=O)c1ccccc1,0.727,2,1.51,4.37,0.406,2.43,1.39,3.27,1.92,5.21,2.51,9.89,2.33,10.2,0.975,4.46,1.87,7.02,,
CCc1ncnc2cc(OCC3CO3)c(OC)cc12 (stereo not given),,> 33.7,,6.8,,> 80.3,,> 46.9,,> 100,,14.3,,30.3,,18.4,,37.4,,
CC/C=C\C[C@H](O)C/C=C1/C(=O)C=C[C@@H]1C/C=C\CCCC(=O)NC,0.612,2.04,2.93,10.7,1.7,> 100,0.317,1.43,2.15,4.95,2.4,10.2,2.44,6.08,1.37,3.5,1.69,3.6,,
C[n+]1c(/C=C/c2ccc(/C=N/NC(=O)c3ccc(C(=O)N/N=C/c4ccc(/C=C/c5cn6ccccc6[n+]5C)cc4)cc3)cc2)cn2ccccc21,,> 100,,> 100,,,,> 100,,,,> 100,,> 100,,,,> 100,,
COc1cc(NC(C)CCCN)c2ncccc2c1Sc1ccc(Cl)cc1 (stereo not given),1.7,3.27,2.31,5.31,,,,,,,1.64,3,2.01,4.06,1.75,3.33,1.83,3.28,,
COc1cc2ccc(CC(N)=O)cc2cc1OC,,> 100,,> 100,,> 100,,> 100,,> 100,,> 100,,> 100,,> 100,,> 100,,
CC(=O)NC1=C(Sc2ccc(Cl)cc2)C(=O)c2ccccc2C1=O,,,,17.1,,5.41,,14,,24.2,,6.77,,20.9,,13.3,,11.9,,

# From PubChem BioAssay (NCI)
